# Measured values taken from PMC9986306, “Beyond CBD: Inhibitory effects of lesser studied phytocannabinoids on human voltage-gated sodium channels” (Frontiers in Physiology, 2023).
# Marks after values point to notes of the source that are not given here.
# Experiments:
# [1] = system: Scn1a+/− mouse model of DS; set-up: method as in Anderson et al., 2021b; conditions: monotherapy, ref Anderson et al., 2021b; cited from earlier work
# [2] = target: T1, human NaV1.6 channel (SCN8A, CHO cells) (Homo sapiens, UniProt Q9UQD0); assay: Planar patch-clamp, biophysical properties (activation, SSFI, recovery from SSFI); format: cell-based; conditions: change vs vehicle DMSO at IC50 concentration (CBD 16.6 μM, CBGA 12.0 μM, CBDVA 24.1 μM)
# T1 construct: expressed in transfected cells
# [3] = system: NaV1.1, NaV1.2, NaV1.6 and NaV1.7 channels; assay: Planar patch-clamp, IC50 values summarised across the four isoforms; format: cell-based, human; conditions: range over NaV1.1, NaV1.2, NaV1.6, NaV1.7; read-out: IC50 values determined here (range over isoforms)
# Method: HEK293T cells stably expressing SCN1A or SCN2A and CHO cells stably expressing SCN8A or SCN9A were maintained as previously described ([Richards et al., 2018]; [Milligan et al., 2022]).
# Patch-clamp recordings were made using a Patchliner® (Nanion Technologies, Munich, Germany) in the whole-cell configuration as previously described ([Richards et al., 2018]; [Milligan et al., 2022]). Briefly, cells were prepared in suspension at a density of 1 × 10^6-5 × 10^7 cells/mL. The external recording solution comprised (in mM): 140 NaCl, 4 KCl, 1 MgCl2, 2 CaCl2, 5 D-glucose, 10 HEPES, pH 7.4 with NaOH, ∼295 mOsm. The internal recording solution comprised (in mM): 50 CsCl, 60 CsF, 10 NaCl, 20 EGTA, 10 HEPES, pH 7.2 with CsOH, ∼285 mOsm. Medium single-hole planar NPC-16 chips with an average resistance of ∼2.5 MΩ were used. Chip and whole-cell capacitance were fully compensated, and 50% series resistance compensation applied. Recordings were acquired at 50 kHz with the low pass filter set to 10 kHz in PATCHMASTER (HEKA Instruments, NY, United States) and performed at 27°C. Offline analysis was performed using Microsoft Excel, MatLab R2019a (MathWorks) and GraphPad Prism 8 (Molecular Devices). […]
# T1 sequence (Q9UQD0 whole entry): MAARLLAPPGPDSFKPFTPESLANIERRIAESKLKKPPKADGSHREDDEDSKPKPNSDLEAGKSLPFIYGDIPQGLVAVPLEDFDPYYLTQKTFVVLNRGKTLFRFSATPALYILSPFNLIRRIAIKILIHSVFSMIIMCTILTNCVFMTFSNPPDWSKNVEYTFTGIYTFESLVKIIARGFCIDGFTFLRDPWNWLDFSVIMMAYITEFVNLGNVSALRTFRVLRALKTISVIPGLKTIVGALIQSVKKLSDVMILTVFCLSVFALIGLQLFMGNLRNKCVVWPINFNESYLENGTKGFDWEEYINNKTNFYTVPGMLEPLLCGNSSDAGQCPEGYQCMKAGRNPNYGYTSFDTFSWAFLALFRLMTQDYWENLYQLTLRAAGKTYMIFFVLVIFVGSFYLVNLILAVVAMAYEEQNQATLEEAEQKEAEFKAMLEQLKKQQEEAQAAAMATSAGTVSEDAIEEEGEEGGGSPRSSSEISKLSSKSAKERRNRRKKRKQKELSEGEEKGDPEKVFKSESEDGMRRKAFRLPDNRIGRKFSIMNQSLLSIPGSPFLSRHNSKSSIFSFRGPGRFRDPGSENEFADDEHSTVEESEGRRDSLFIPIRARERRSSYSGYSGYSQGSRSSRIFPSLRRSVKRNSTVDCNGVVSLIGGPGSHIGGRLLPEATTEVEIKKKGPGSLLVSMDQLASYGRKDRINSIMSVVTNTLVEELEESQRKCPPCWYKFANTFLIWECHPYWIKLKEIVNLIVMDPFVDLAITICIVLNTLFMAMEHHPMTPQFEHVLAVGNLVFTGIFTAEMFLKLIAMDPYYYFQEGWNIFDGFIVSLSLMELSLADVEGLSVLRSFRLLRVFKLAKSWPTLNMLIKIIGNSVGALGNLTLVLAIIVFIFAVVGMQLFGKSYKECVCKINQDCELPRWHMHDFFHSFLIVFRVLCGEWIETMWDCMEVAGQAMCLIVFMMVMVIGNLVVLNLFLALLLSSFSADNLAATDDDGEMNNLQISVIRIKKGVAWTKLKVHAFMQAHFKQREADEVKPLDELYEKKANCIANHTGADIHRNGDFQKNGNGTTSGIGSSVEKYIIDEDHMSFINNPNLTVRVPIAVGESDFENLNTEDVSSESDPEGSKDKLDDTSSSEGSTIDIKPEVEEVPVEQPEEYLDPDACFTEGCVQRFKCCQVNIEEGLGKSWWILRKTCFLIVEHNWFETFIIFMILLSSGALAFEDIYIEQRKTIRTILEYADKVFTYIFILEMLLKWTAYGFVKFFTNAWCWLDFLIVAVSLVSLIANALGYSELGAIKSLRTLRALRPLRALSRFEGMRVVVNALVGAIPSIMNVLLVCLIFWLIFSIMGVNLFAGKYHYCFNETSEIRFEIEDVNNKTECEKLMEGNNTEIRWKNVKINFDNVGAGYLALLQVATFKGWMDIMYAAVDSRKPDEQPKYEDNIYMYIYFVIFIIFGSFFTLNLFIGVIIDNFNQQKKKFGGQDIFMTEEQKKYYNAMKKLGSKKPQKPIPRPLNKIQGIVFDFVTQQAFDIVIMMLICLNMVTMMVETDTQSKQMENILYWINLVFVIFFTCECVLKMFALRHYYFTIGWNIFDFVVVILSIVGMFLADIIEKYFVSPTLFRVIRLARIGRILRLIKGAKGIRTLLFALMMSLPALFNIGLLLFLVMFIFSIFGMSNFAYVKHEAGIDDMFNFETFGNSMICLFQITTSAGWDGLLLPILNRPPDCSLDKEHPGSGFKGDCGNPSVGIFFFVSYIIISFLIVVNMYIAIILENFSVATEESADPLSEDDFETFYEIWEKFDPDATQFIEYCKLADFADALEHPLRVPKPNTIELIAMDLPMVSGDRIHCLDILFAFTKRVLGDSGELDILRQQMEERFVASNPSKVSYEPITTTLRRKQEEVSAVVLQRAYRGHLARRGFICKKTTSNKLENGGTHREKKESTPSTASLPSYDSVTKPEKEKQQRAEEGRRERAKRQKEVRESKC
structure (smiles),measurement,setting,value
"CCCCCc1cc(O)c(C/C=C(\C)CCC=C(C)C)c(O)c1C(=O)O [CBGA, cannabigerolic acid]",Effect on spontaneous seizures,[1],proconvulsive effects
same,Inactivation △ V0.5 inact,[2]; SSFI,−0.5 ± 2.4 mV
same,Inactivation △ slope factor,[2]; SSFI,1.1 ± 0.2**
same,Activation △ Slope factor,[2],−0.4 ± 0.3
same,Activation △ V0.5 act,[2],0.1 ± 1.6 mV
same,Inactivation △ τinact SSFI at 5 mV,[2],0.2 ± 0.2
same,IC50,[3],12 to 16.4 µM
